± gives the expanded uncertainty stated by the source.
Assays:
[1] = 101.33 kPa, Liquid, Pycnometric method
[2] = excess molar enthalpy (molar enthalpy of mixing); xn = mol fraction of the nth substance listed; settings: 297.15 K, 101 kPa, Liquid, Constant Pressure Calorimeter

C1CCNCC1 [piperidine]
[1]
Settings | mass density [kg/m3]
293.65 K | 873.5 ± 1.8
296.05 K | 867.1 ± 1.8
298.15 K | 864.6 ± 1.8
300.05 K | 856.3 ± 1.7
302.65 K | 852.4 ± 1.7
304.55 K | 852.6 ± 1.7
306.45 K | 852.5 ± 1.7
308.25 K | 850.6 ± 1.7
310.35 K | 846.3 ± 1.7
313.75 K | 842.2 ± 1.7
315.15 K | 840.8 ± 1.7
317.35 K | 837.7 ± 1.7
319.15 K | 835.3 ± 1.7
321.15 K | 833.5 ± 1.7
323.05 K | 831.4 ± 1.7

C1CCNCC1 [piperidine] + O
[2]
Settings | excess molar enthalpy [kcal/mol]
x2 = 0 | 0 ± 0.000239
x2 = 0.05 | -0.0853 ± 0.00359
x2 = 0.09 | -0.123 ± 0.00502
x2 = 0.15 | -0.18 ± 0.00741
x2 = 0.21 | -0.268 ± 0.011
x2 = 0.25 | -0.35 ± 0.0143
x2 = 0.3 | -0.4 ± 0.0163
x2 = 0.35 | -0.437 ± 0.0177
x2 = 0.4 | -0.461 ± 0.0189
x2 = 0.45 | -0.475 ± 0.0194
x2 = 0.5 | -0.511 ± 0.0208
x2 = 0.55 | -0.532 ± 0.0215
x2 = 0.6 | -0.53 ± 0.0215
x2 = 0.65 | -0.522 ± 0.0213
x2 = 0.7 | -0.495 ± 0.0201
x2 = 0.75 | -0.469 ± 0.0194
x2 = 0.93 | -0.234 ± 0.0134
x2 = 0.96 | -0.159 ± 0.0131
x2 = 0.99 | -0.0557 ± 0.0153

c1ccncc1 [pyridine]
[1]
Settings | mass density [kg/m3]
293.95 K | 981 ± 2
295.35 K | 979.2 ± 2
297.25 K | 977.9 ± 2
299.15 K | 975.3 ± 2
301.25 K | 972.8 ± 2
303.25 K | 971.7 ± 2
305.15 K | 969.9 ± 2
307.25 K | 967.9 ± 2
309.25 K | 965.2 ± 1.9
311.35 K | 963.6 ± 1.9
313.15 K | 961.6 ± 1.9
315.35 K | 959.8 ± 1.9
317.55 K | 956.3 ± 1.9
319.55 K | 953.9 ± 1.9
321.15 K | 953.1 ± 1.9

c1ccncc1 [pyridine] + O
[2]
Settings | excess molar enthalpy [kcal/mol]
x2 = 0 | 0 ± 0.000239
x2 = 0.05 | -0.028 ± 0.0012
x2 = 0.1 | -0.061 ± 0.00263
x2 = 0.15 | -0.11 ± 0.00454
x2 = 0.2 | -0.156 ± 0.00645
x2 = 0.25 | -0.21 ± 0.0086
x2 = 0.3 | -0.247 ± 0.01
x2 = 0.35 | -0.284 ± 0.0117
x2 = 0.4 | -0.33 ± 0.0136
x2 = 0.45 | -0.374 ± 0.0153
x2 = 0.5 | -0.389 ± 0.0158
x2 = 0.55 | -0.388 ± 0.0158
x2 = 0.6 | -0.378 ± 0.0153
x2 = 0.65 | -0.366 ± 0.0148
x2 = 0.7 | -0.332 ± 0.0136
x2 = 0.73 | -0.318 ± 0.0129
x2 = 0.89 | -0.154 ± 0.00741
x2 = 0.92 | -0.121 ± 0.00669
x2 = 0.95 | -0.0804 ± 0.00621
x2 = 0.98 | -0.0364 ± 0.00645

O [water] + C1CCNCC1
Settings | excess molar enthalpy [kcal/mol]
[2], x1 = 1 | 0 ± 0.000239

O [water] + c1ccncc1
Settings | excess molar enthalpy [kcal/mol]
[2], x1 = 1 | 0 ± 0.000239

From the NIST ThermoML archive (doi:10.1016/j.fluid.2009.10.018)
